Experimental data: patent publication US20120010075A1 (priority 2009, published 2012)
Counter-ions that a name gives are not always drawn. Like-named read-outs stand apart in the source and are kept apart here.

Experiments:
[1] = test system: Leptosphaeria nodorum (LEPTNO); assay: In vitro fungitoxicity of hydrazones with and without copper towards Leptosphaeria nodorum (Example 26); type: cell-based; details: 72 h at 25° C.; for inhibition of growth at 0.05 µg/mL: Parastagonospora nodorum, 72 h, read-out: LEPTNO % Inhn. Minus Copper Observed
Phytophthora infestans = type: in vivo, Phytophthora infestans on tomato; details: applied 24 h before inoculation, assessed 7 days after inoculation
[2] = compound 0.05 μg/mL, copper-minus medium
[3] = compound 0.05 μg/mL, copper-plus medium (CuCl2.2H2O)
[4] = hydrazone 50 ppm + 50 μM CuCl2.2H2O, tomato
[5] = copper-minus medium, test compound Concn. 0.05 μg/mL
[6] = copper-plus medium (CuCl2 10 μM), test compound Concn. 0.05 μg/mL
[7] = hydrazone 50 ppm with 50 μM CuCl2.2H2O, tomato late blight

| Structure (SMILES) | inhibition of growth at 0.05 µg/mL [1, 2] | LEPTNO % Inhn. Plus Copper Observed [1, 3] | TLB % Control (Phytophthora infestans; [4]) | melting point | inhibition of growth at 0.05 µg/mL [1, 5] | LEPTNO % Inhn. Plus Copper Observed [1, 6] | TLB % Control (Phytophthora infestans; [7]) | LEPTNO % Inhn. Minus Copper Observed [1, 2] |
| --- | --- | --- | --- | --- | --- | --- | --- | --- |
| Cc1ccc(O)c(C(=O)N/N=C/c2cc(Cl)cc(Cl)c2O)c1 [Example 258] | 34.1% | 97.4% | 87.0% | 277 to 280 °C | – | – | – | – |
| Cc1ccc(C(=O)N/N=C/c2c(Cl)ccc(Cl)c2O)cc1 [Example 366] | – | – | – | 267 to 269 °C | 14.2% | 96.6% | 100.0% | – |
| O=C(N/N=C/c1c(Cl)ccc(Cl)c1O)c1cccc([N+](=O)[O-])c1 [Example 371] | – | – | – | 273 to 277 °C | 12.6% | 96.1% | 98.0% | – |
| C/C(=N\NC(=O)c1cccc(Cl)c1)c1cc(F)cc(F)c1O [Example 577] | – | – | – | 279 to 282 °C | 1.9% | 97.9% | 100.0% | – |
| O=C(N/N=C/c1c(Cl)ccc(Cl)c1O)c1ccccc1C(F)(F)F [Example 373] | – | – | – | 221 to 222 °C | 0% | 97.3% | 90.0% | – |
| C/C(=N\NC(=O)c1ccccc1Br)c1cccc(Cl)c1O [Example 502] | – | – | – | 178 to 183 °C | 4.2% | 97.2% | 85.0% | – |
| COc1ccc(C(=O)N/N=C(\C)c2cccc(Cl)c2O)cc1 [Example 499] | – | – | – | 203 to 204 °C | 0% | 97.4% | 85.0% | – |
| O=C(N/N=C/c1c(O)cccc1Cl)c1cccc(Cl)c1 [Example 402] | – | – | – | 250 to 253 °C | 0% | 95.2% | 100.0% | – |
| Cc1cccc(C(=O)N/N=C/c2cc(C(F)(F)F)cc(C(F)(F)F)c2O)c1 [Example 332] | – | – | – | 210 to 213 °C | 2% | 93.9% | 89.0% | – |
| COc1ccc(C(=O)N/N=C(\C)c2c(O)cc(OC)cc2OC)cc1 [Example 569] | – | – | – | 143 to 146 °C | 6.1% | 15.8% | 70.0% | – |
| CC(C)c1ccc(C(=O)N/N=C/c2cc(Cl)cc(Cl)c2O)cc1 [Example 41] | – | 97.2% | 87.0% | 261 to 263 °C | – | – | – | 0.0% |
| O=C(N/N=C/c1cc([N+](=O)[O-])cc(Br)c1O)c1cccc(Cl)c1 [Example 201] | 4% | 96.0% | 50.9% | 276 to 280 °C | – | – | – | – |
| C/C(=N\NC(=O)c1ccc(C)cc1O)c1cc(Cl)cc(Cl)c1O [Example 491] | – | – | – | 320 to 323 °C | 25% | 97.5% | 75.0% | – |
| O=C(N/N=C/c1cccc(C(F)(F)F)c1O)c1cccc([N+](=O)[O-])c1 [Example 349] | – | – | – | 215 to 217 °C | 17.4% | 96.9% | 97.0% | – |
| COc1ccc(O)c(/C(C)=N/NC(=O)c2cccc(C)c2)c1 [Example 263] | 4.1% | 97.9% | 14.0% | 131 to 141 °C | – | – | – | – |
| O=C(N/N=C/c1cccc(Cl)c1O)c1cccc([N+](=O)[O-])c1 [Example 429] | – | – | – | 236 to 239 °C | 10.4% | 97.4% | 94.0% | – |
| COc1ccc(C(=O)N/N=C(\C)c2cc(C(F)(F)F)ccc2O)cc1 [Example 534] | – | – | – | 228 to 231 °C | 5.1% | 95.7% | 61.0% | – |
| COc1ccc(/C(C)=N/NC(=O)c2ccc(C)cc2)c(O)c1 [Example 283] | 0% | 95.9% | 67.0% | 206 to 207 °C | – | – | – | – |
| C/C(=N\NC(=O)c1ccccc1O)c1cc(C(F)(F)F)ccc1O (as salt: Na) [Example 538] | – | – | – | 277 to 297 °C | – | – | – | – |
| Cc1ccc(C)c(C(=O)N/N=C/c2cc(Cl)cc(Cl)c2O)c1 [Example 23] | – | – | 53.3% | 169 to 172 °C | – | – | – | – |
| Cc1ccc(C(=O)N/N=C/c2ccc(Cl)cc2O)c(O)c1 [Example 397] | – | – | – | 283 to 287 °C | – | – | 6.7% | – |
| O=C(N/N=C/c1cc(Cl)cc(Cl)c1O)c1ccccc1Cl [Example 93] | 6% | 95.2% | 77.2% | – | – | – | – | – |
| C/C(=N\NC(=O)c1ccccc1C)c1ccccc1O [Example 66] | 0.1% | 97.4% | 51.0% | – | – | – | – | – |

| Structure (SMILES) | inhibition of growth at 0.05 µg/mL [1, 2] | LEPTNO % Inhn. Plus Copper Observed [1, 3] | TLB % Control (Phytophthora infestans; [4]) | melting point | inhibition of growth at 0.05 µg/mL [1, 5] | LEPTNO % Inhn. Plus Copper Observed [1, 6] | TLB % Control (Phytophthora infestans; [7]) | LEPTNO % Inhn. Minus Copper Observed [1, 2] |
| --- | --- | --- | --- | --- | --- | --- | --- | --- |
| O=C(N/N=C/c1cc(Cl)cc(Cl)c1O)c1cccc(F)c1 [Example 89] | 17.5% | 95.9% | 85.8% | – | – | – | – | – |
| O=C(N/N=C/c1cccc([N+](=O)[O-])c1O)c1ccccc1 [Example 145] | 2.4% | 97.2% | 55.9% | – | – | – | – | – |
| O=C(N/N=C/c1cc(Br)cc([N+](=O)[O-])c1O)c1ccccc1 [Example 144] | 0% | 98.5% | 87.0% | – | – | – | – | – |
| C/C(=N\NC(=O)c1ccc(C(C)(C)C)cc1)c1ccccc1O [Example 55] | 0% | 95.5% | 43.9% | – | – | – | – | – |
| Cc1ccc(C(=O)N/N=C/c2ccccc2O)cc1 [Example 8] | 0% | 92.6% | 59.6% | – | – | – | – | – |
| O=C(N/N=C/c1cc(Cl)cc(Br)c1O)c1ccccc1F [Example 169] | 2.7% | 98.1% | 78.9% | – | – | – | – | – |
| CC/C(=N\NC(=O)c1ccccc1)c1ccccc1O [Example 130] | 1.2% | 98.6% | 50.8% | – | – | – | – | – |
| O=C(N/N=C/c1cc(Cl)ccc1O)c1cccc(Cl)c1 [Example 178] | 8.5% | 98.3% | 59.3% | – | – | – | – | – |
| COc1cccc(C(=O)N/N=C/c2cc(Cl)cc(Cl)c2O)c1 [Example 82] | 8.4% | 97.4% | 60.6% | – | – | – | – | – |
| O=C(Cc1ccc(F)cc1)N/N=C/c1cc(Cl)cc(Cl)c1O [Example 126] | 13.2% | 92.4% | 73.0% | – | – | – | – | – |
| COc1ccc(C(=O)N/N=C/c2cc(Cl)cc(Cl)c2O)cc1OC [Example 85] | 5.3% | 90.0% | 51.5% | – | – | – | – | – |
| Cc1ccccc1C(=O)N/N=C/c1cc(Cl)ccc1O [Example 157] | 7.8% | 96.9% | 61.8% | – | – | – | – | – |
| C/C(=N\NC(=O)c1cc(C)cc(C)c1)c1ccccc1O [Example 39] | 1.3% | 97.9% | 18.6% | – | – | – | – | – |
| CCOc1ccc(C(=O)N/N=C(\C)c2ccccc2O)cc1 [Example 18] | 0% | 96.9% | 38.6% | – | – | – | – | – |
| O=C(N/N=C/c1cc([N+](=O)[O-])cc(Br)c1O)c1ccccc1 [Example 153] | 0% | 97.0% | 34.6% | – | – | – | – | – |
| C/C(=N\NC(=O)c1ccc(C)cc1C)c1ccccc1O [Example 29] | 0% | 98.0% | 50.8% | – | – | – | – | – |
| C/C(=N\NC(=O)c1cccc(Cl)c1)c1ccccc1O [Example 65] | 0% | 98.3% | 10.0% | – | – | – | – | – |
| O=C(N/N=C/c1cc(Cl)cc(Cl)c1O)c1ccc(Br)cc1 [Example 80] | 0% | 98.4% | 91.5% | – | – | – | – | – |
| O=C(N/N=C/c1cc([N+](=O)[O-])ccc1O)c1ccccc1 [Example 152] | 0% | 89.1% | 26.0% | – | – | – | – | – |
| CN(C)c1ccc(C(=O)N/N=C/c2cc(Cl)cc(Cl)c2O)cc1 [Example 103] | 17.9% | 98.1% | 63.2% | – | – | – | – | – |
| O=C(N/N=C/c1cc(Cl)cc(Cl)c1O)c1ccc(F)cc1 [Example 22] | 16% | 97.6% | 93.2% | – | – | – | – | – |
| CCOc1ccc(C(=O)N/N=C/c2cc(Br)cc(Br)c2O)cc1 [Example 104] | 27.7% | 98.2% | 70.2% | – | – | – | – | – |
| O=C(N/N=C/c1cc(Cl)ccc1O)c1cccc(Br)c1 [Example 181] | 16% | 97.6% | 90.5% | – | – | – | – | – |
